Laboratory results: ChEMBL document CHEMBL1201862, “PubChem BioAssay data set” (2004)
Activity calls are given as the source filed them.

Tests used:
[1] = target: Induced myeloid leukemia cell differentiation protein Mcl-1 (Homo sapiens, UniProt Q07820); assay type: functional
[2] = target: T1, Voltage-gated N-type calcium channel alpha-1B subunit/Amyloid beta A4 precursor protein-binding family A member 1 (Homo sapiens, UniProt Q00975+Q02410); assay type: protein assay
[3] = target: T1, Voltage-gated N-type calcium channel alpha-1B subunit/Amyloid beta A4 precursor protein-binding family A member 1; assay type: protein assay; remark: listed apart in the source
[4] = target: T2, Protein RecA (Mycobacterium tuberculosis, UniProt P9WHJ3); test: Fluorescence Cell-Free Homogeneous Dose Retest to Identify Inhibitors of RecA-Intein Splicing Activity. [Related pubchem assays (depositor defined):AID2097, AID2223, AID489010, AID492950]; assay type: functional
T2 sequence (P9WHJ3 whole entry): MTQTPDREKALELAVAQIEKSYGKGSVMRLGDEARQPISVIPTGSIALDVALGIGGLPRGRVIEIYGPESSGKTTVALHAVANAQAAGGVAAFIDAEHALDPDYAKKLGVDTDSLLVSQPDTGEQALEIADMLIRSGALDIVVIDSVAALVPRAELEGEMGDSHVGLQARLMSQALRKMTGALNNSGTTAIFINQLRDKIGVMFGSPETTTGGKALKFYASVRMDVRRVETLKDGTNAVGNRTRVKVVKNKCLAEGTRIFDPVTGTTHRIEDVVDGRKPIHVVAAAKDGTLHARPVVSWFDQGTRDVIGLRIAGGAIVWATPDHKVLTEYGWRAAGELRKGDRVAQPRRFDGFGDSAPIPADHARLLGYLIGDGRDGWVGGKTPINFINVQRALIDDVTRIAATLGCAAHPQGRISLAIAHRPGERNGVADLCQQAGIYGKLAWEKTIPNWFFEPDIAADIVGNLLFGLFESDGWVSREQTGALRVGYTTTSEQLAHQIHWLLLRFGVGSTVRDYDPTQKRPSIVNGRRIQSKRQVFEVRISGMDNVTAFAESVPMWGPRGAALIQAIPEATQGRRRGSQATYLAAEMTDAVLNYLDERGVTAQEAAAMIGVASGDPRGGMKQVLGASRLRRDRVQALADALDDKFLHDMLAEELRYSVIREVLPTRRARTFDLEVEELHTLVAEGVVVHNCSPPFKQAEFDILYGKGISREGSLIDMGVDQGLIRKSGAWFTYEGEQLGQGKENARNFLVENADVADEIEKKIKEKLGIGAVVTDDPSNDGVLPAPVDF

[5] = target: T3, Replicative DNA helicase DnaB (Mycobacterium tuberculosis, UniProt P9WMR3); test: DnaB intein splicing inhibitors, dose response, biochemical, cell-free fluorescence (AID 449749); assay type: functional
T3 sequence (P9WMR3 whole entry): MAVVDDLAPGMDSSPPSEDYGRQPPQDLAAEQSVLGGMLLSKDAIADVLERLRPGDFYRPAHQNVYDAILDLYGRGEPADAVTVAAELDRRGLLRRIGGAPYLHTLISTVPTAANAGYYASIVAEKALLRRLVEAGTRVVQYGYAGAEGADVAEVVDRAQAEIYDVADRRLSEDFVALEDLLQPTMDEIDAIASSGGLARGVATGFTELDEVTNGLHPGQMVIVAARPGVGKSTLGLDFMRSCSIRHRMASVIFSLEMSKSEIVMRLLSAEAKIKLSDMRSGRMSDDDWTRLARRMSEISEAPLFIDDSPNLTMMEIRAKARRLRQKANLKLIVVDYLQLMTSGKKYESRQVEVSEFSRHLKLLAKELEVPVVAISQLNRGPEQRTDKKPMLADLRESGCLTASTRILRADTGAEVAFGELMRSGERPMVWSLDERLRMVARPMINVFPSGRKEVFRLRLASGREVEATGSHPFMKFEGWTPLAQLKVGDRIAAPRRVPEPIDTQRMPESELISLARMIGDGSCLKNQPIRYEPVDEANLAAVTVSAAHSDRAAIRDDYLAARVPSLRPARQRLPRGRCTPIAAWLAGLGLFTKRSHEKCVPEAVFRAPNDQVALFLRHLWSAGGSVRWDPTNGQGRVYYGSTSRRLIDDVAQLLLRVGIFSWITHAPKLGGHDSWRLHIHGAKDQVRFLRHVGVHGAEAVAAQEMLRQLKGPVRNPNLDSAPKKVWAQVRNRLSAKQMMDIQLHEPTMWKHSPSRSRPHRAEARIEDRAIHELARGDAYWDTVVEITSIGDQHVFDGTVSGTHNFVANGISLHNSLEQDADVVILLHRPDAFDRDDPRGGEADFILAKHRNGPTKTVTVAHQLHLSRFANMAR

[6] = target: Large T antigen (Simian virus 40, UniProt P03070); assay type: functional, Betapolyomavirus macacae;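 note: Confirmatory-stage PubChem screen for compounds that inhibit SV40 T antigen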
Chain of Large T antigen (P03070 whole entry): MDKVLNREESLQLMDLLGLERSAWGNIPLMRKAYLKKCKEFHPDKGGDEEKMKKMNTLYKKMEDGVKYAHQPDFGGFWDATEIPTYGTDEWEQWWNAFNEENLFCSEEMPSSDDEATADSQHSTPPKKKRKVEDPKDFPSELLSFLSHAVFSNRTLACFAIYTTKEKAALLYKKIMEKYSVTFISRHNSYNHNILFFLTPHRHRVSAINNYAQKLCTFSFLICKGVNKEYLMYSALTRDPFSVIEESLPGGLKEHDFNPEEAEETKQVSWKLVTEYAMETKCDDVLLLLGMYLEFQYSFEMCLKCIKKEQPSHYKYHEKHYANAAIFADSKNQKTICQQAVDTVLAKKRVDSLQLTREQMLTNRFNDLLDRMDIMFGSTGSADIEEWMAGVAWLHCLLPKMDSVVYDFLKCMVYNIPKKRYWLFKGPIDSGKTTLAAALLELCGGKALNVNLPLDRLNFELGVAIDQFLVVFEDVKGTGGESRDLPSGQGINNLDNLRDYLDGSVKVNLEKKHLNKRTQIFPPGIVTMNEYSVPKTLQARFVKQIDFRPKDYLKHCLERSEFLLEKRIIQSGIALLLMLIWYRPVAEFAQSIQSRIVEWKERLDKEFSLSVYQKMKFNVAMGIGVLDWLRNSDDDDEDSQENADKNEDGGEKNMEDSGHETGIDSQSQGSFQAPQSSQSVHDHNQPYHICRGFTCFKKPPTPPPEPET

[7] = target: FAD-linked sulfhydryl oxidase ALR (Homo sapiens, UniProt P55789); test: inhibitors of human ALR sulfhydryl oxidase, dose response, biochemical, H2O2 detection, luminescence, cherry-pick (AID 493248)
Chain of FAD-linked sulfhydryl oxidase ALR (P55789 whole entry): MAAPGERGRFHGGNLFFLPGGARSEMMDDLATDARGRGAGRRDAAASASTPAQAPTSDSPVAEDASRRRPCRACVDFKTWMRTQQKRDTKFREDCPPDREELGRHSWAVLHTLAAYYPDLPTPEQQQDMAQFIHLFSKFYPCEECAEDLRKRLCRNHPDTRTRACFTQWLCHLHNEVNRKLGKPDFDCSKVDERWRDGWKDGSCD

[8] = target: T4, Polyadenylate-binding protein 1 (Homo sapiens, UniProt P11940); test: PABP1 MLLE–PAM2 binding inhibitor potency, dose response, biochemical, fluorescence polarization, FITC-PAM2 peptide (AID 602259); assay type: functional; conditions: read-out: IC50_Mean
T4 sequence (P11940 whole entry): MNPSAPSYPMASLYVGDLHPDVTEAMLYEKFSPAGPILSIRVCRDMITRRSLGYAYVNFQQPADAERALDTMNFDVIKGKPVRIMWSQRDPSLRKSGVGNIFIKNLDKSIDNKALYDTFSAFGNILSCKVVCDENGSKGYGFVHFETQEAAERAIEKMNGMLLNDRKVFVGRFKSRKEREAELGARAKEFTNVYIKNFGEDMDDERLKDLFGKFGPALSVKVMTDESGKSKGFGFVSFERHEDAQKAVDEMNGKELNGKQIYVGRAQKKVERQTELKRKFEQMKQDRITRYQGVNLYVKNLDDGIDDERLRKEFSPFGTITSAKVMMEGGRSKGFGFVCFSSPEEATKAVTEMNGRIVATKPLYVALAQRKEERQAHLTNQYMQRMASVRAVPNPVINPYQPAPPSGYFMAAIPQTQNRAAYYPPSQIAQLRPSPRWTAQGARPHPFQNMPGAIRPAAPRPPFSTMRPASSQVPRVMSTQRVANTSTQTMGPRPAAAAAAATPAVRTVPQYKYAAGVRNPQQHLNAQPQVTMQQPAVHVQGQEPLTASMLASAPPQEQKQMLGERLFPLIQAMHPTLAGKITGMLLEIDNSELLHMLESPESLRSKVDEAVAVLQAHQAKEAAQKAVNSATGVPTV

[9] = target: T4, Polyadenylate-binding protein 1; test: PABP1 MLLE–PAM2 interaction inhibitors, dose response, miRNA deadenylation inhibitor project, biochemical, fluorescence polarization, Cy5-PAM2 peptide, secondary (AID 602260); assay type: functional; conditions: read-out: IC50_Mean
[10] = test system: HEK293; test: NOD2 signaling inhibitors in MDP-stimulated cells, cell-based, uHTS, luminescence (AID 2001); assay type: functional; conditions: Homo sapiens
[11] = inhibitors of intracellular T. cruzi replication, confirmation, NIH3T3 host cells, beta-gal luminescence (AID 2044); assay type: functional, cell-based;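 note: intracellular parasites grown in NIH/3T3 mouse fibroblasts as host cells; luminescent beta-galactosidase reporter signal from transgenic T. cruzi replicating inside host cells; inhibitors lower the luminescence signal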
[12] = growth suppression of beta-catenin-knockout colon cells, dose response, cell-based, HCT116, human colon tumor (AID 1045); assay type: functional;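 note: HCT116 colon tumor cells with beta catenin knocked out; cells exposed to compound for 60 hours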
[13] = test system: HEK293; test: cells; assay type: functional, cell-based; conditions: Homo sapiens
[14] = test system: HEK293; test: NOD1 signaling inhibitors, primary screen, cell-based, luminescence, uHTS (AID 1578); assay type: functional; conditions: Homo sapiens
[15] = cytotoxicity toward NIH3T3 fibroblasts, dose response, counter-screen, cell-based, ATP luminescence, mouse fibroblasts (AID 2010); assay type: functional;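 note: cells exposed to compound for about 90 hours before reading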
[16] = test system: HEK293; test: cells; assay type: functional, cell-based; conditions: Homo sapiens; remark: listed apart in the source
[17] = growth suppression of PTEN-null colon cells, dose response, cell-based, HCT116 PTEN knockout (AID 1047); assay type: functional;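 note: HCT116 colon tumor cells with PTEN knocked out; cells exposed to compound for 60 hours before readout; potency for loss of cell viability measured by luminescence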
[18] = test system: HEK293; test: inhibitors of LMP1-driven NF-kB reporter, dose response, cell-based, HEK293, luciferase, cherry-pick (AID 588343); assay type: functional; conditions: Homo sapiens

T1 sequence (Q00975 whole entry): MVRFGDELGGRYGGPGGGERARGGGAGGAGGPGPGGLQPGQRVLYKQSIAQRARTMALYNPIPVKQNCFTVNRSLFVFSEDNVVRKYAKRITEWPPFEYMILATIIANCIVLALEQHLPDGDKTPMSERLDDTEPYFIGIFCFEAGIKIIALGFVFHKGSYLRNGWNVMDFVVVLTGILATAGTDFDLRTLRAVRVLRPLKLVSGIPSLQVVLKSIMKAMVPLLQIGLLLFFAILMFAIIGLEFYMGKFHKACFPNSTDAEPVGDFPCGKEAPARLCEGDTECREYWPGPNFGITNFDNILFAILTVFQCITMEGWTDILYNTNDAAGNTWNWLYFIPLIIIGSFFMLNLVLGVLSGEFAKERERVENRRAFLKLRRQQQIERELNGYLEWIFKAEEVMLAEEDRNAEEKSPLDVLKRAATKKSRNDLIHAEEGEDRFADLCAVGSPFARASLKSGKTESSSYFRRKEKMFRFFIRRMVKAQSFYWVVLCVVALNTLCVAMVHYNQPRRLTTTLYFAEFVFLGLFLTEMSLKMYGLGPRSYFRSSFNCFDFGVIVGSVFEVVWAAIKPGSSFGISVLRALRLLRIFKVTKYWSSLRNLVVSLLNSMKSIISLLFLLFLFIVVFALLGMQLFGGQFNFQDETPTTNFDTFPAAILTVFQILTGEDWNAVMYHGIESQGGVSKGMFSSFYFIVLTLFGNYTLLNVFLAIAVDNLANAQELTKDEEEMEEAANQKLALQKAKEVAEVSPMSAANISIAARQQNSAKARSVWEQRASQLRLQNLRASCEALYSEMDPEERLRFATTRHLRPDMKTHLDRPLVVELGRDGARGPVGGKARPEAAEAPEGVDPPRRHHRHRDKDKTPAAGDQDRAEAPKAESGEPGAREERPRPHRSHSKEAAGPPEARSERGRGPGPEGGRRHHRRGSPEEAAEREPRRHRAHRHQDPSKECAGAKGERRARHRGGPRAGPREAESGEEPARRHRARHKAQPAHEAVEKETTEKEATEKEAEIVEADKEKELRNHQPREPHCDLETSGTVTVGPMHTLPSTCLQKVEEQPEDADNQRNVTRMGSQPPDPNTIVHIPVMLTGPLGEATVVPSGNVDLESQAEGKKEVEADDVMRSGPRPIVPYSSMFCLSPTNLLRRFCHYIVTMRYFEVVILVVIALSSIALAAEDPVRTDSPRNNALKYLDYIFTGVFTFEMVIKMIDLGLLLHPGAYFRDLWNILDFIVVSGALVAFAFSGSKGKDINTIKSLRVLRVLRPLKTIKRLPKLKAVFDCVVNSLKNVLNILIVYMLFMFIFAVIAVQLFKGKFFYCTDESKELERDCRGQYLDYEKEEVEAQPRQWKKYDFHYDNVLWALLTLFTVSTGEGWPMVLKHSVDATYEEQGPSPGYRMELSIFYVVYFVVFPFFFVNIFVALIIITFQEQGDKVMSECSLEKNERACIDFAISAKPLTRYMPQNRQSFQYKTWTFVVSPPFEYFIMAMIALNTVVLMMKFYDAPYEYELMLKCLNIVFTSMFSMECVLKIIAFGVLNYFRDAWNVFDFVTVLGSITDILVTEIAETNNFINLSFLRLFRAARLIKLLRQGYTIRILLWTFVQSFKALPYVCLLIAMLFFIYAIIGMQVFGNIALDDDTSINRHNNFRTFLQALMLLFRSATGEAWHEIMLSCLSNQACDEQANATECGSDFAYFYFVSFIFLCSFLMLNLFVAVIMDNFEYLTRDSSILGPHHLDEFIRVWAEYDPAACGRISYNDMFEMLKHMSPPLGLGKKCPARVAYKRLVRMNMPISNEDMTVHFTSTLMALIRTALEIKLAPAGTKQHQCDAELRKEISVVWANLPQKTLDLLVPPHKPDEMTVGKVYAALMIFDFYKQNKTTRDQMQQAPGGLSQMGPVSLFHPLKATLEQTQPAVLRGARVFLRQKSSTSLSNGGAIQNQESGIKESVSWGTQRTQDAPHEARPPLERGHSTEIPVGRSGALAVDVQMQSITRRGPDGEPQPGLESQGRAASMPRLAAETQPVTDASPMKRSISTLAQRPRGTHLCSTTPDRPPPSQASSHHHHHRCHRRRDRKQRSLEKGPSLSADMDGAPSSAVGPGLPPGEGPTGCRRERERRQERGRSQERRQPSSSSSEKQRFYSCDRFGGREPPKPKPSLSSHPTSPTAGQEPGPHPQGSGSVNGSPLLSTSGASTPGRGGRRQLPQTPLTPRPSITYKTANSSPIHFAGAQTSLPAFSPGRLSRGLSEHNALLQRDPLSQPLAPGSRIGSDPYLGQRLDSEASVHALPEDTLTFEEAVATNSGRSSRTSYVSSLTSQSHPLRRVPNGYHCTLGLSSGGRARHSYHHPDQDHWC
T1 sequence (Q02410 whole entry): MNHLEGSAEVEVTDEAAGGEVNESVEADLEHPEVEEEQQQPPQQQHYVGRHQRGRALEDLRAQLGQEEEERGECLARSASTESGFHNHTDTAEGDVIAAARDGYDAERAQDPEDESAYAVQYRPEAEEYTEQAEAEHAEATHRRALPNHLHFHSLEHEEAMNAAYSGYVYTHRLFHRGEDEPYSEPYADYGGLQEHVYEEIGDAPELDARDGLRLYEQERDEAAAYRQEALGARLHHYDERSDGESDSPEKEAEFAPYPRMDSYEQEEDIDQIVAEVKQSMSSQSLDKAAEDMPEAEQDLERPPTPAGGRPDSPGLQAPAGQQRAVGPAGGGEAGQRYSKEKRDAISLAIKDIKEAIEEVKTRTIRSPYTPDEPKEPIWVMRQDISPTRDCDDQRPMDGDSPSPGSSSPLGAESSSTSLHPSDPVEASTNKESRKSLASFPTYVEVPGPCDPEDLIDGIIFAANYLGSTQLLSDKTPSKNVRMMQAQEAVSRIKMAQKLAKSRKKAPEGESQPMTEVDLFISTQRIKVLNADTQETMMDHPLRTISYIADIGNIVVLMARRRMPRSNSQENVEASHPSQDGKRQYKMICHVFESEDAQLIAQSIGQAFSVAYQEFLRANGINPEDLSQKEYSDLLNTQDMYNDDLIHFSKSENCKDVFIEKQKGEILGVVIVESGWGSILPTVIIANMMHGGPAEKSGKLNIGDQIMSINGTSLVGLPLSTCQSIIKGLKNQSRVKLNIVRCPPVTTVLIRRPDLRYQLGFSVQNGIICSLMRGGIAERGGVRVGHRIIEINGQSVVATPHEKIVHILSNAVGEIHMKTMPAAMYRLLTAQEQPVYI
Chain of Induced myeloid leukemia cell differentiation protein Mcl-1 (Q07820 whole entry): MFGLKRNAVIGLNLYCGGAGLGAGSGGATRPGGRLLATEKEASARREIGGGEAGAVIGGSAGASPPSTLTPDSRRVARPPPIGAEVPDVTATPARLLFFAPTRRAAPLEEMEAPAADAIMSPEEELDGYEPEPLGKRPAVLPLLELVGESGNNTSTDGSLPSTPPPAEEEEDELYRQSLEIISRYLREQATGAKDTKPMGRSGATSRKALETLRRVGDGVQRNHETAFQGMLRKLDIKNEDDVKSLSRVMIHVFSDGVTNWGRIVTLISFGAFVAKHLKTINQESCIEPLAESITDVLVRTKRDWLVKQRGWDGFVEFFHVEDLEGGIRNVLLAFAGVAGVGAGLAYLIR

For O=[N+]([O-])c1ccc(-c2cc(-c3ccc(Cl)cc3)n[nH]2)cc1, which IC50 [1] is on record?
The IC50 was 2.5 µM (active).

What about the IC50 [2] of the same compound?
Its IC50 is > 56.8 µM (not active).

And the IC50 [3]?
Its IC50 is > 50 µM (inactive).

Which results are given for N#Cc1c(C#N)c(O)c2ccccc2c1O?
EC50 [4]: 1.55 µM (active); IC50 [2]: 3.83 µM (active); AC50 [5]: > 380 µM (inactive); IC50 [3]: 25.8 µM (active)

What does the source list for N#CC1=C(N)N=C(S)C(C(N)=O)C1c1ccccc1F (configuration not stated)?
IC50 [6]: 60 µM (active); AC50 [7]: 8.62 µM (active); IC50 [2]: 13.6 µM (active); IC50 [8]: > 66 µM (inactive); IC50 [9]: > 66 µM (inactive); IC50 [3]: > 50 µM (inactive)

For CC(=O)Nc1nc(C)c(-c2csc(Nc3cccc([N+](=O)[O-])c3)n2)s1, which IC50 [10] is on record?
The IC50 was 8.61 µM (active).

What about the EC50 [11] of the same compound?
Its EC50 is 0.995 µM (active).

What about the EC50 [12] of the same compound?
Its EC50 is 24.8 µM (active).

And the IC50 [13]?
The IC50 was 17.1 µM (active).

And the EC50 [14]?
The EC50 was 9.4 µM (active).

And the EC50 [15]?
The EC50 was 14.1 µM (active).

What about the IC50 [16] of the same compound?
Its IC50 is 11.1 µM (active).

And the EC50 [17]?
The EC50 was 18.2 µM (active).

And the AC50 [18]?
The AC50 was 2.16 µM (active).
